Assay results: publication PMC11930985 (Nature Communications, 2025)

Test system: AML/MDS patients
Procedure: Safety assessments including standard clinical laboratory safety tests (hematology, biochemistry, coagulation, and urinalysis), physical examinations, vital signs (blood pressure, heart rate, respiration rate and temperature), and ECOG performance status were performed at baseline and throughout the study. Electrocardiograms were obtained at screening, Cycle 1 Day 1–4, 8, and 15, Cycle 2 Day 1, 8 and 15, at Day 1 of each cycle thereafter, (up to and including Cycle 15), and at Final Study Visit. QT prolongation was assessed using the Fridericia correction […] [34]. Severity of QTcF prolongation was defined as follows: Grade 1: maximum prolongation 450–480 ms; Grade 2: maximum prolongation 481-500 ms; Grade 3: ≥501 ms on at least two separate ECGs; Grade 4: ≥501 ms or >60 ms change from baseline, with Torsades de pointes, polymorphic ventricular tachycardia or signs/symptoms of serious arrythmia; Grade 5: Death.
Adverse events (AEs) were monitored starting at study enrolment until 28 days after end of treatment and graded according to the National Cancer Institute Common Terminology Criteria for Adverse Events (NCI-CTCAE) version 4.0. If drug-related toxicities continued beyond the follow-up period, patients were followed until all drug-related toxicities resolved to grade ≤1, stabilized or returned to baseline.

[1] = DE and LDAC cohorts combined (n = 72)

In the case of `Nc1nc(Nc2ccc3c(c2)CC[C@@H](N2CCCC2)CC3)nn1-c1cc2c(nn1)-c1ccccc1CCC2` [Bemcentinib], the “Fatal SAEs: cerebral hemorrhage” value [1] is reported as 2 n, the “Fatal SAEs: pneumonia/fungal pneumonia” value [1] is reported as 3 n and the “Fatal SAEs: sepsis/neutropenic sepsis” value [1] is reported as 4 n. The “Fatal SAEs” value (DE cohort) was 7, the “Actinomyces test positive, number of events (E)” value (human, in vivo) was 1 and the “Actinomyces test positive, patients affected” value (human, in vivo) was 1 (2.8) n (%). The “Anaemia, number of events (E)” value (human, in vivo) was 4, the “Anaemia, patients affected” value (human, in vivo) was 4 (11.1) n (%) and the “Anxiety, number of events (E)” value (human, in vivo) was 2. For the same compound, the “Anxiety, patients affected” value (human, in vivo) was 2 (5.6) n (%), the “Back pain, number of events (E)” value (human, in vivo) was 1 and the “Back pain, patients affected” value (human, in vivo) was 1 (2.8) n (%). The “Blood and lymphatic system disorders (System Organ Class), number of events (E)” value (human, in vivo) was 26, the “Blood and lymphatic system disorders (System Organ Class), patients affected” value (human, in vivo) was 12 (33.3) n (%) and the “Cardiac disorders (System Organ Class), number of events (E)” value (human, in vivo) was 10. For the same compound, the “Cardiac disorders (System Organ Class), patients affected” value (human, in vivo) was 4 (11.1) n (%), the “Decreased appetite, number of events (E)” value (human, in vivo) was 2 and the “Decreased appetite, patients affected” value (human, in vivo) was 2 (5.6) n (%). The “Dehydration, number of events (E)” value (human, in vivo) was 1, the “Dehydration, patients affected” value (human, in vivo) was 1 (2.8) n (%) and the “Device related infection, number of events (E)” value (human, in vivo) was 1. The “Device related infection, patients affected” value (human, in vivo) was 1 (2.8) n (%), the “Diarrhoea, number of events (E)” value (human, in vivo) was 6 and the “Diarrhoea, patients affected” value (human, in vivo) was 3 (8.3) n (%). For the same compound, the “Dysgeusia, number of events (E)” value (human, in vivo) was 1, the “Dysgeusia, patients affected” value (human, in vivo) was 1 (2.8) n (%) and the “Dysphagia, number of events (E)” value (human, in vivo) was 1. For the same compound, the “Dysphagia, patients affected” value (human, in vivo) was 1 (2.8) n (%), the “Dyspnoea exertional, number of events (E)” value (human, in vivo) was 1 and the “Dyspnoea exertional, patients affected” value (human, in vivo) was 1 (2.8) n (%). For the same compound, the “Dyspnoea, number of events (E)” value (human, in vivo) was 1, the “Dyspnoea, patients affected” value (human, in vivo) was 1 (2.8) n (%) and the “Enterococcal bacteraemia, number of events (E)” value (human, in vivo) was 1. For the same compound, the “Enterococcal bacteraemia, patients affected” value (human, in vivo) was 1 (2.8) n (%), the “Enthesopathy, number of events (E)” value (human, in vivo) was 1 and the “Enthesopathy, patients affected” value (human, in vivo) was 1 (2.8) n (%). The “Epistaxis, number of events (E)” value (human, in vivo) was 2, the “Epistaxis, patients affected” value (human, in vivo) was 1 (2.8) n (%) and the “Fall, number of events (E)” value (human, in vivo) was 1. For the same compound, the “Fall, patients affected” value (human, in vivo) was 1 (2.8) n (%), the “Fatigue, number of events (E)” value (human, in vivo) was 4 and the “Fatigue, patients affected” value (human, in vivo) was 2 (5.6) n (%). The “Gastrointestinal disorders (System Organ Class), number of events (E)” value (human, in vivo) was 18, the “Gastrointestinal disorders (System Organ Class), patients affected” value (human, in vivo) was 12 (33.3) n (%) and the “General disorders and administration site conditions (System Organ Class), number of events (E)” value (human, in vivo) was 8. The “General disorders and administration site conditions (System Organ Class), patients affected” value (human, in vivo) was 6 (16.7) n (%), the “General physical health deterioration, number of events (E)” value (human, in vivo) was 3 and the “General physical health deterioration, patients affected” value (human, in vivo) was 3 (8.3) n (%). The “Gingivitis, number of events (E)” value (human, in vivo) was 1, the “Gingivitis, patients affected” value (human, in vivo) was 1 (2.8) n (%) and the “Haematuria, number of events (E)” value (human, in vivo) was 1. For the same compound, the “Haematuria, patients affected” value (human, in vivo) was 1 (2.8) n (%), the “Hyperglycaemia, number of events (E)” value (human, in vivo) was 4 and the “Hyperglycaemia, patients affected” value (human, in vivo) was 2 (5.6) n (%). The “Hyperuricaemia, number of events (E)” value (human, in vivo) was 2, the “Hyperuricaemia, patients affected” value (human, in vivo) was 2 (5.6) n (%) and the “Hypoglycaemia, number of events (E)” value (human, in vivo) was 1. For the same compound, the “Hypoglycaemia, patients affected” value (human, in vivo) was 1 (2.8) n (%), the “Hypokalaemia, number of events (E)” value (human, in vivo) was 5 and the “Hypokalaemia, patients affected” value (human, in vivo) was 5 (13.9) n (%). For the same compound, the “Hyponatraemia, number of events (E)” value (human, in vivo) was 2, the “Hyponatraemia, patients affected” value (human, in vivo) was 2 (5.6) n (%) and the “Hypophosphataemia, number of events (E)” value (human, in vivo) was 3. For the same compound, the “Hypophosphataemia, patients affected” value (human, in vivo) was 3 (8.3) n (%), the “Hypotension, number of events (E)” value (human, in vivo) was 3 and the “Hypotension, patients affected” value (human, in vivo) was 3 (8.3) n (%). The “Hypoxia, number of events (E)” value (human, in vivo) was 2, the “Hypoxia, patients affected” value (human, in vivo) was 2 (5.6) n (%) and the “Infection, number of events (E)” value (human, in vivo) was 2. For the same compound, the “Infection, patients affected” value (human, in vivo) was 2 (5.6) n (%), the “Infections and infestations (System Organ Class), number of events (E)” value (human, in vivo) was 29 and the “Infections and infestations (System Organ Class), patients affected” value (human, in vivo) was 23 (63.9) n (%). The “Injury, poisoning and procedural complications (System Organ Class), number of events (E)” value (human, in vivo) was 1, the “Injury, poisoning and procedural complications (System Organ Class), patients affected” value (human, in vivo) was 1 (2.8) n (%) and the “Investigations (System Organ Class), number of events (E)” value (human, in vivo) was 8. The “Investigations (System Organ Class), patients affected” value (human, in vivo) was 7 (19.4) n (%), the “Lactic acidosis, number of events (E)” value (human, in vivo) was 1 and the “Lactic acidosis, patients affected” value (human, in vivo) was 1 (2.8) n (%). For the same compound, the “Leukocytosis, number of events (E)” value (human, in vivo) was 1.
